This is an account of results in patent US4612371A, “Anthracycline antibiotics” (Sanraku Incorporated, priority 1984, dated 1986).

In brackets after ≈: the same amount, converted by molar mass.

Experiment [1] relates to mouse leukemia L1210 cells. The experiment is described as follows: Inhibition of RNA synthesis in L1210 culture cells (14C-uridine intake). The class given is cell-based. To be noted: read-out: 50% Inhibitory Concentration (IC50), Inhibition of RNA Synthesis. On the procedure:
(§1) L 1210 cells of 5×10^4 /ml were inoculated on, e.g., RPM 11640 medium (Rosewellberg Research Laboratories) containing 20% bovine serum and, the substances of the present invention were added thereto, respectively, in a concentration of 0.02 to 0.25 μg/ml in a similar fashion. Cultivation was performed at 37° C. in a carbon dioxide culture bottle. Then, a 50% inhibitory action against proliferation was determined based on control fraction. Further, the aforesaid L 1210 culture cell was suspended in 10% bovine serum-containing RPM 11640 medium in a concentration of 5×10^5 /ml. After cultivating at 37° C. for 1 to 2 hours in a carbon dioxide culture bottle, the substance was added in various concentrations and, ^14 C-uridine (0.05 μCi/ml) or ^14 C-thymidine (0.05 μCi/ml) was further added thereto 15 minutes after followed by culturing at 37° C. for 60 minutes. A cold 10% trichloro-acetic acid was added to the reaction solution to discontinue the reaction and at the same time, matters insoluble in the acid were precipitated. After washing further twice with cold 5% trichloroacetic acid, the insoluble matters were dissolved in formic acid and, radioactivity was measured. A 50% intake inhibitory concentration was determined from an intake rate of radioactivity, based on the control fraction to which no substance was added.

Experiment [2] has as its system mouse leukemia L1210 cells. Put plainly: Inhibition of DNA synthesis in L1210 culture cells (14C-thymidine intake). The class given is cell-based. To be noted: read-out: 50% Inhibitory Concentration (IC50), Inhibition of DNA Synthesis. Here is the method: as §1
Experiment [3] concerns mouse leukemia L1210 cells. The experiment is described as follows: Inhibition of proliferation of cultured mouse leukemia L1210 cells. It counts as cell-based. Here is the method: as §1
Another experiment deals with mouse L1210 leukemia. Put plainly: In vivo anti-tumor activity against mouse L1210 leukemia. To be noted: day 1 to day 10, CDF1 mice, n = 6. An excerpt:
Inoculation: 1 × 10^5 cell/mouse (i.p.)
Treatment: day 1 to day 10 (i.p.)

Setting [4] is: 1 h, L1210 cells 5×10^5/ml, 10% bovine serum, 14C-uridine, 60 minutes, 37° C.
Where [5] appears, read: 1 h, L1210 cells 5×10^5/ml, 10% bovine serum, 14C-thymidine, 60 minutes, 37° C.
The mark [6] stands for this setting: L1210 cells 5×10^4/ml, 20% bovine serum, 37° C., read-out: 50% Inhibitory Concentration (IC50), Inhibition of Cell Proliferation.

As for `CCC1(O)CC(OC2CC(N)C(O)C(C)O2)c2c(O)c3c(c(O)c2C1C(=O)OC)C(=O)c1cccc(O)c1C3=O` (stereo not shown) [D788-6], the IC50 is 1.3 µg/mL (≈ 2.33 µM) in experiment [1] (L1210, 1 h); 2.6 µg/mL (≈ 4.66 µM) in experiment [2] (L1210, 1 h); 0.25 µg/mL (≈ 0.448 µM) in experiment [3] (L1210, read-out: 50% Inhibitory Concentration (IC50), Inhibition of Cell Proliferation).
Turning to `CCC1(O)CC(OC2CC(N)C(O)C(C)O2)c2c(O)c3c(c(O)c2C1O)C(=O)c1cccc(O)c1C3=O` (stereo not shown) [D788-7], the values for the IC50 in experiment [1] (setting [4]), in experiment [2] (setting [5]) and in experiment [3] (setting [6]) were 0.68 µg/mL (≈ 1.32 µM), 0.29 µg/mL (≈ 0.563 µM) and 0.0003 µg/mL (≈ 0.000582 µM), respectively. Also, the “Anti-tumor Effect T/C(%)” value came out at 102% with mouse L1210 leukemia (4 μg/kg/day i.p.); 104% in the experiment with mouse L1210 leukemia (8 μg/kg/day i.p.); 133% in the experiment on mouse L1210 leukemia (16 μg/kg/day i.p.); 187% in the experiment with mouse L1210 leukemia (32 μg/kg/day i.p.); 204% in the experiment with mouse L1210 leukemia (62.5 μg/kg/day i.p.); 172% in the experiment on mouse L1210 leukemia (125 μg/kg/day i.p.). For the same compound, in the experiment on mouse L1210 leukemia (250 μg/kg/day i.p.), the “Anti-tumor Effect T/C(%)” value was determined as 100%.
Regarding `CC(O)C1=Cc2c(O)c3c(c(O)c2[C@@H](O[C@H]2C[C@H](N)[C@H](O)[C@H](C)O2)C1)C(=O)c1c(O)cccc1C3=O` (stereo partly shown) [D788-8], the IC50 in experiment [1] (setting [4]) stood at 1.58 µg/mL (≈ 3.18 µM); in experiment [2] (setting [5]) it was 3.4 µg/mL (≈ 6.83 µM); in experiment [3] (setting [6]), 0.22 µg/mL (≈ 0.442 µM).
On to `COC(=O)C1c2c(O)c3c(c(O)c2C(OC2CC(N)C(O)C(C)O2)CC1(O)C(C)=O)C(=O)c1c(O)cccc1C3=O` (stereo not shown) [D788-9], for which the IC50 in experiment [1] (setting [4]) was found to be 2.59 µg/mL (≈ 4.53 µM); in experiment [2] (setting [5]) it was 4.2 µg/mL (≈ 7.35 µM); in experiment [3] (setting [6]), 0.22 µg/mL (≈ 0.385 µM).
On to `CC1OC(OC2CC(O)(C(C)O)C(C(=O)O)c3c(O)c4c(c(O)c32)C(=O)c2c(O)cccc2C4=O)CC(N)C1O` (stereo not shown) [D788-10], for which the IC50 in experiment [1] (setting [4]) stood at 10 µg/mL (≈ 17.9 µM); in experiment [2] (setting [5]), 10 µg/mL (≈ 17.9 µM); in experiment [3] (setting [6]), 0.083 µg/mL (≈ 0.148 µM).
